Here are results for 1 compound from patent publication US20130084267A1, “METHOD FOR STEM CELL DIFFERENTIATION” (THE UNIVERSITY OF QUEENSLAND, priority 2010, published 2013).

One test relates to MR90 cells. The experiment in a line: Flow cytometry analysis of EPCAM expression in SB431542-treated MR90. The test is classed as cell-based, human. How it is done:
(a) the isotype Ab control. […] The EPCAM-(CD326-) cell population have been identified as the precursors of the mesodermal cell lineage. These cells can be further differentiated into mesenchymal stem cell lineage, like MSC. The iPSC MR90 cells were cultured in mTeSR and KOSR condition medium with SB431542 for 10 days, and then subcultured into MSC medium to differentiate cells into MSC. […] Analysis was performed by flow cytometry for EPCAM expression in the SB431542-treated MR90 cells after at 10 days in culture.
On the technique in general: In flow cytometry, cells or beads pass a laser one at a time.

The subject of a further test is MEL1. Briefly: qRT-PCR gene expression analysis of SB431542-treated MEL1. The test is classed as cell-based, human. Particulars: MEL1, 10 μM SB431542, 10 days.
The next test relates to MR90. Briefly: qRT-PCR gene expression analysis of SB431542-treated MR90. As to conditions: MR90, 10 μM SB431542, 10 days. The test is classed as cell-based, human. How it is done: Pluripotent iPSC, MR90, were cultured in KOSR medium with 10 μM SB431542 treatment for 10 days. After 10 days treatment, MR90 cells were subcultured in the MSC medium for differentiating MSC cells. […] MSC are indicated as MR90-MSC P0 (passage 0). The SB431542 treated cells and MR90-MSC P0 were analyzed for gene expression. (a-d) OCT4, SOX2, MYST2 and EPCAM genes associated with iPSC pluripotency. (e-h) NCAM, MSX2, LEFTY1 and BMP4 genes expressed by cell lineages from the mesoderm. (i-j) PAX6 gene is expressed by cell lineages from the ectoderm and CDX2 gene is expressed by cell lineages from the trophectoderm. (k) GATA gene expressed by cell lineages from the endoderm. (l-o) Genes expressed by MSC (positive in CD29, CD73 and negative in the CD117, CD133). Gene expression was normalized to GAPDH. All experiments represent duplicates.
(A, B) The heat map of mRNA expression level was assayed by qRT-PCR array. ESC/iPSC cells were cultured in KOSR condition medium with 10 μM SB431542. […] (C) Relative mRNA transcripts folds change of quantitative RT-PCR analysis in the indicated cell subsets. […]
Pluripotent iPSC (MR90) were cultured in mTESR medium and KOSR medium with 10 μM SB431542 for 10 days. […] After 10 days, SB431542-treated cells and MR90-MSC P0 cells were analyzed for gene expression (see FIG. 13). […]

The subject of another test is hESC. The experiment in a line: Morphology of hESC cultured in the presence of SB431542. As to conditions: after 10 days incubation with SB431542. Type of test: cell-based, human. The source says:
(A) hESC remain as tightly packed colonies of small cells when cultured in normal growth conditions. […] (B) When these cells are transferred to MSC media, they again change morphology and become fibroblastic. (C) MSC also have a fibroblast-like morphology. (D) hiPSC line ES4CL1 also differentiates though an epithelial-like morphology into MSC-like cells with this SB431542 inhibitor culture method.
Day −4 to −1: hESC/iPSC were dissociated from mouse embryonic fibroblast (MEF) feeder layer and seeded on either un-coated flasks (i.e., which allow for adherence (attachment) of the pluripotent cells to the surface) or matrigel-coated flasks in mTESR (defined pluripotent stem cell media, Stem Cell Technologies; i.e. serum free, feeder layer free).
Day 1: when cell colonies were approximately 40% confluent, 10 uM SB431542 inhibitor (Sigma Aldrich) was added in DMEM:F12+20% knock out serum replacement (KOSR, Invitrogen) media.
Day 2-9: 20% KOSR+SB431542 inhibitor media replaced daily.
Day 7-10: when 90%+ cells have differentiated from hESC colonies to a monolayer with epithelial-like morphology, cells were passaged using TrypleSelect. Single cells were then seeded at 3×10^4-1.5×10^5 cells/cm^2 in fetal MSC medium (DMEM-HG+10% MSC qualified FBS), then passage when nearly confluent as for MSC.

Another test concerns iPSC. Briefly: Immunofluorescence marker analysis of iPSC differentiated in the presence of SB431542. The test is classed as cell-based, human. The source says: Nuclei were counter-stained with dapi (blue). […] Nuclei were counter-stained with dapi (blue).
A further test relates to ALK-4, -5 and -7. Particulars: Inman et al. 2002; Laping et al. 2002; cited from earlier work.
Test [1] relates to BMP signaling utilizing ALK-1, -2, -3, and -6. As to conditions: Inman et al. 2002; Laping et al. 2002; cited from earlier work.
The next test has as its system SMAD2/3 phosphorylation. As to conditions: Xu et al. 2008; cited from earlier work.
Where [2] appears, read: compared with undifferentiated cells in mTeSR medium.

Molecules are shown by their SMILES.

Method for MEL1: The pluripotent hESC line, MEL1, was cultured in KOSR medium with 10 μM SB431542 treatment. After 10 days treatment, MEL1 cells were subcultured in MSC medium for differentiating MSC cells. […] SB431542 treated cells and MEL1-MSC P2 were analyzed for gene expression. (a-d) OCT4, SOX2, MYST2 and EPCAM genes associated with iPSC pluripotency. (e-h) NCAM, MSX2, LEFTY1 and BMP4 genes expressed by cell lineages from the mesoderm. (i-j) PAX6 gene is expressed by cell lineages from the ectoderm and CDX2 gene is expressed by cell lineages from the trophectoderm. (k) GATA gene expressed by cell lineages from the endoderm. (l-o) Genes expressed by MSC (positive in CD29, CD73 and negative in the CD117, CD133). Gene expression was normalized to GAPDH. All experiments represent duplicates. […] (A, B) The heat map of mRNA expression level was assayed by qRT-PCR array. ESC/iPSC cells were cultured in KOSR condition medium with 10 μM SB431542. After 10 days treatment, cells were subcultured into MSC medium to differentiate cells into MSC. RNA was extracted from MEL1 and MR90 cells at day 10. […] (C) Relative mRNA transcripts folds change of quantitative RT-PCR analysis in the indicated cell subsets. All the gene expression level was normalized to GAPDH mRNA level and compared to genes level in the mTESR culture condition. […]

As for `NC(=O)c1ccc(-c2nc(-c3ccc4c(c3)OCO4)c(-c3ccccn3)[nH]2)cc1` [SB431542, 4-[4-(1,3-benzodioxol-5-yl)-5-(2-pyridinyl)-1H-imidazol-2-yl]-benzamide], the “population of EPCAM+ MR90 cell” value was 5.94% in the test with MR90 cells (KOSR medium with SB431542, 10 days, decreased from 22.84%) and 8.14% in the test on MR90 cells (MTESR medium with SB431542, 10 days, decreased from 45%). Further, the “differentiation into germ layer lineages (lineage gene expression)” value in the test on MEL1 is “enhanced MEL1 differentiation into mesoderm (MSX1, MSX2, SOX9, NCAM1, BMP4), ectoderm (PAX6), trophectoderm (CDX2), endoderm (GATA4) and MSC cells (CD73, CD29)”; in the test on MR90, “induced MR90 differentiate into mesoderm (MSX1, MSX2, NCAM1, BMP4), ectoderm (PAX6) and trophectoderm (CDX2)”. The “relative mRNA levels of pluripotent genes (Pou5F (Oct4), SOX2, MYST2)” value in the test on MEL1 (setting [2]) and with MR90 (setting [2]) was “decreased” in each case. Further, the cell morphology entry in the test on hESC is given as “differentiated into an epithelial-like monolayer”. Moreover, the “expression of pluripotency markers (Oct4, Nanog, Stella, SSEA3, Tra 1-60 and Tra 1-81)” value with iPSC was “decreased expression”. For the same compound, in the test with ALK-4, -5 and -7, the “inhibition of ALK-4, -5 and -7” value is “selective and potent inhibitor”. For the same compound, the “effect on BMP signaling utilizing ALK-1, -2, -3, and -6” value in test [1] is recorded as “without affecting”. Also, in the test with SMAD2/3 phosphorylation, the “effect on SMAD2/3 phosphorylation and NANOG promoter activity in hESC” value was “inhibiting SMAD2/3 phosphorylation and subsequent decrease in NANOG promoter activity”.
